Reference: US20250186461A1, “METHODS AND COMPOSITIONS FOR TREATING AND/OR PREVENTING HERNIAS” (Northwestern University, priority 2023, published 2025)
“Also recorded” adds a separate entry of the source.

Key:
[1] = system: Arom^hum mice; experiment: Hernia prevention in Arom^hum mice (treatment before hernia formation); format: in vivo, mouse; conditions: for hernia formation / hernia size: male Arom^hum mice, 12-week treatment started at 3-3.5 weeks of age (before hernia formation)
Source text: Our study design is robust, utilizing Arom^hum mice with endpoints examined after treatment with placebo or anti-P4/PGR, and compared to those of WT littermates using 2 different tissue sites: UAM and LAM (normal or weakened/herniated). Inguinal hernia affects predominantly men vs. women (10:1 ratio). Inguinal hernias are unique to male mice and aged men. […] Here, we will focus on the effects of P4/PGR action on skeletal muscle integrity and hernia formation in males, and our work will be carried out in male mice or tissues primarily from men over 50 years of age. We will use mouse or human tissues or primary cells to closely recapitulate in vivo pathology.
The mouse scrotum is connected to the peritoneal cavity with a narrow funicular (or inguinal) canal, with walls composed of LAM tissue. Structurally normal LAM tissue is essential to maintain the tone of this canal and prevent herniation of the bowel.
Experiment 1a1: Does the addition of P4 to E2 treatment accelerate LAM fibrosis and hernia formation in WT mice? […] We hypothesize that this effect is primarily mediated by the E2 induction of PGR expression in LAM fibroblasts. […] If this were true, the addition of pharmacologic quantities of P4 (75 mg/pellet for 12-week release)^73 to E2 (0.3 mg/pellet for 12-week release)^23-25 in WT mice should accelerate this phenotype. […] See Statistical Methods above for sample size calculation. Hernia surface area will be measured using a digital caliper and calculated as previously described (length×width)^19. At the designated endpoints, LAM and UAM (control) from each mouse will be resected, with one-half of the tissue snap-frozen in liquid nitrogen, and the other half fixed in 4% phosphate-buffered paraformaldehyde for histological and IHC analyses (see below). All tissue and serum (for P4/E2 levels) samples will be collected between 10:00 AM and noon to avoid possible variability in daily hormone fluctuations. […] We will continue to complete the rest of the proposed study in this subaim. We will also assess whether and extent of muscle fibrosis and atrophy will be induced in P4+E2-induced large hernias and E2-induced small hernias. […] P4 antagonists show various levels of selectivity for PGR. […] The use of 3 distinct P4/PGR antagonists with different properties will establish the role of PGR in muscle fibrosis and hernia.
(§1) Hernias will be classified as small, medium, or large if the bulging area through muscle tissue is 125-175 mm^2, 175-225 mm^2, or >225 mm^2, respectively. […] We will assess whether muscle fibrosis, atrophy, and hernia are arrested or reversed. […] Hernia size will be measured. After completion of treatment, the mice will be dissected, and LAM, UAM (control), and serum will be collected. A total of 100 mg of tissue (LAM and UAM) will be obtained and frozen for measurement of tissue E2/P4.

[2] = system: Arom^hum mice; experiment: Halting progression of small/medium-sized hernias in Arom^hum mice; format: in vivo, mouse; conditions: 12-week treatment started when small/medium-sized hernias were formed, n=10, vs placebo
Experimental: The treatment started when small/medium-sized hernias were formed. ****p<0.0001.
as §1, with “E2/P4. Circulating and tissue E2/P4 levels will be measured using LC-MS^2. We will use immunoblotting and IHC to determine PGR expression in LAM and UAM tissues. PGR target gene expression (Greb1, Cyp7b1) will be measured in paraformaldehyde-fixed LAM tissues using RNAScope and IHC. […] We will continue to complete the rest of the proposed study in this subaim. We will also assess whether muscle fibrosis, atrophy, and large hernia are halted.” for “E2/P4.”

[3] = system: LAM fibroblasts from Arom^hum mice; experiment: Click-iT EdU proliferation assay; format: cell-based, mouse; conditions: 1 μM antagonist; E2 (10 nM)+R5020 (100 nM)
[4] = system: LAM primary fibroblasts from Arom^hum mice; experiment: mRNA levels of P4/PGR-responsive and fibrotic genes in LAM primary fibroblasts; format: cell-based, mouse; conditions: for E2+R5020-stimulated expression of Col1a1 and Col12a1, blockade: pretreatment with 1 μM antagonist
[5] = target: T1, aromatase enzyme (Homo sapiens, UniProt P11511); conditions: cited from earlier work
T1 sequence (P11511 1-503): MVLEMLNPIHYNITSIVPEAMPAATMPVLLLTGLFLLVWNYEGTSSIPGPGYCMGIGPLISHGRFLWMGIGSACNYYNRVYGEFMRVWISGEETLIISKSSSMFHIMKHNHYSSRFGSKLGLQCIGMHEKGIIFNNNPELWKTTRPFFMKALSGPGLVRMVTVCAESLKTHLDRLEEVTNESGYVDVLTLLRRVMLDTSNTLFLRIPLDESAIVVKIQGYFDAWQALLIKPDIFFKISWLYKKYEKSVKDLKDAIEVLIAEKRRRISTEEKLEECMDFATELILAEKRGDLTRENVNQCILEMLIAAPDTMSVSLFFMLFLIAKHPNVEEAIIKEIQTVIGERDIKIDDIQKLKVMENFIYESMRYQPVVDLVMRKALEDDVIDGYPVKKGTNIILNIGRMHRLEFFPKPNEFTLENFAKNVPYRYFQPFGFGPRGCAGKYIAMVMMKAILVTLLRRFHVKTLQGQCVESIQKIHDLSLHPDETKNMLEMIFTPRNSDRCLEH

E2+R5020-induced expression of P4/PGR-responsive (Greb1, Cyp7b1) and fibrotic genes (Adamtsl1, Col1a1, Col14a1) ([4]; 1 μM antagonist, pretreated 2 h before E2 (10 nM)+R5020 (100 nM))	SMILES	LAM fibroblast proliferation in vivo (Ki67 IHC staining) ([1]; Arom^hum mice, placebo or RU486, n=6)	LAM tissue fibrosis, ECM deposition and myocyte atrophy (Masson's trichrome staining) ([1]; Arom^hum mice, vs placebo)	PGR-positive fibroblasts in LAM tissue (PGR IHC staining) ([1]; Arom^hum mice, vs placebo, n=10)	scrotal area ([1]; RU486-treated Arom^hum mice vs WT littermates)	hernia formation / hernia size ([1]; vs placebo)	progression (growth) of small/medium-sized hernias, hernia area [2]	inhibition of E2+R5020-stimulated LAM fibroblast proliferation [3]	E2+R5020-stimulated expression of Col1a1 and Col12a1, blockade [4]	inhibition of aromatase enzyme activity [5]
–	CC#C[C@]1(O)CC[C@H]2[C@@H]3CCC4=CC(=O)CCC4=C3[C@@H](c3ccc(N(C)C)cc3)C[C@@]21C [RU486, Mifepristone]	blocked	prevents LAM fibrosis, excessive ECM deposition or myocyte atrophy; also recorded: prevented LAM tissue fibrosis and atrophy in all treated Arom^hum mice	much fewer fibroblasts with PGR IHC staining; also recorded: severely reduced numbers of PGR-positive fibroblasts	slightly larger than that of WT littermates but was maintained within the upper limit of normal with no evidence of herniation	prevented hernia formation in Arom^hum mice; also recorded: strikingly reduced hernia size or entirely prevented hernia development in all Arom^hum mice	halted the progression of small/medium-sized hernias in Arom^hum mice; also recorded: halted the growth of small- and medium-size hernias in all treated Arom^hum mice	inhibited; also recorded: blocked	blocked	does not inhibit aromatase enzyme activity
significantly decreased	CC(=O)O[C@]1(C(C)=O)CC[C@H]2[C@@H]3CCC4=CC(=O)CCC4=C3[C@@H](c3ccc(N(C)C)cc3)C[C@@]21C [UPA, Ulipristal acetate]	–	–	–	–	prevented hernia formation in Arom^hum mice; also recorded: also prevented hernia formation	halted the progression of small/medium-sized hernias in Arom^hum mice; also recorded: halted the growth of small- and medium-size hernias in all treated Arom^hum mice	inhibited; also recorded: blocked	blocked	does not inhibit aromatase enzyme activity
